In patent US20160046618A1, “Cyclopropyl Fused Thiazin-2-Amine Compounds as Beta-Secretase Inhibitors and Methods of Use” (AMGEN INC., priority 2014, published 2016):

Legend:
[1] = system: Aβ40 in conditioned medium of cells stably expressing Amyloid Precursor Protein (APP); assay: In vitro BACE-1 cell-based assay (Aβ40 sandwich ELISA); conditions: read-out: IC50 IP (μM) BACE1 cell
Method in brief: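 Read-out: time-resolved fluorescence (Streptavidin-Europium) of Aβ40 captured by pAb40 and detected with biotinylated 6E10 from supernatants of APP-stable cells. Cells were exposed to compound for 24 h, 10-point dose response, top dose 100 μM or 10 μM, 0.1% DMSO. IC50 fitted to percent of control.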

Recombinant Cat D = Recombinant Cat D (Homo sapiens (Human), UniProt P07339); assay: In vitro enzymatic Cathepsin D (Cat D) FRET assay; assay type: biochemical; conditions: read-out: IC50 IP (μM) CatD
Recombinant Cat D, sequence (P07339 65-412): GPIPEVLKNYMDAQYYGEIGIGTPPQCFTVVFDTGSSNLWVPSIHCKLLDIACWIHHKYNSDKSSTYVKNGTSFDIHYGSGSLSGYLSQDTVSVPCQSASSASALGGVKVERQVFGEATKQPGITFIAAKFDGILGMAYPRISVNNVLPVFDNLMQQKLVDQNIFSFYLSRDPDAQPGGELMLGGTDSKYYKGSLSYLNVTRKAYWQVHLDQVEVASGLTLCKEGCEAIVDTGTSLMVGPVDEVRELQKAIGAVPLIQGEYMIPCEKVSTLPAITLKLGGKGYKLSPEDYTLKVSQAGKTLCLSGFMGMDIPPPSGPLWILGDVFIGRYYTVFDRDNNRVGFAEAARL
Method in brief: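 Recombinant Cat D expressed in CHO cells, assayed in 0.05 M citrate pH 3.5 with 5 mM CHAPS and 10% DMSO final. Reaction started with 20 nM FRET peptide substrate, incubated one hour, then stopped by Tris buffer to neutral pH; fluorescence read at ex 500/em 580 nm.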

human recombinant BACE1 = human recombinant BACE1 (Homo sapiens (Human), UniProt P56817); assay: In vitro enzymatic BACE1 FRET assay; assay type: biochemical; conditions: read-out: IC50 IP (μM) BACE1 enzyme
human recombinant BACE1, sequence (P56817 46-501): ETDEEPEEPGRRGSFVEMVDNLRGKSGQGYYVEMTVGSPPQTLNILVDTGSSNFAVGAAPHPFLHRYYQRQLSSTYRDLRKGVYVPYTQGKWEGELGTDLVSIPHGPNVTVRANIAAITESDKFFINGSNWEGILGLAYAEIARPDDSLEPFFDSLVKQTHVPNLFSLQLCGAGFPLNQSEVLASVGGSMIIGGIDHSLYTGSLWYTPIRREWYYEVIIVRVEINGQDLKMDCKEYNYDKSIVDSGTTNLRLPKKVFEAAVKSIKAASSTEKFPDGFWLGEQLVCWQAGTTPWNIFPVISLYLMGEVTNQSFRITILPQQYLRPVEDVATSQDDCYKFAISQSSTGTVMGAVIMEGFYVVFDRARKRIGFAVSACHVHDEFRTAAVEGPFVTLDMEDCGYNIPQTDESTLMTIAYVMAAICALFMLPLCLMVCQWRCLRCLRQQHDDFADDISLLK
Method in brief: (§1)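 Tris addition raises the pH to neutral to stop the reaction before fluorescence is measured at 590 nm emission with 488 nm excitation.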

human recombinant BACE2 = human recombinant BACE2 (Homo sapiens (Human), UniProt Q9Y5Z0); assay: In vitro enzymatic BACE2 FRET assay; assay type: biochemical; conditions: read-out: IC50 IP (μM) BACE2 enzyme
human recombinant BACE2, sequence (Q9Y5Z0 63-518): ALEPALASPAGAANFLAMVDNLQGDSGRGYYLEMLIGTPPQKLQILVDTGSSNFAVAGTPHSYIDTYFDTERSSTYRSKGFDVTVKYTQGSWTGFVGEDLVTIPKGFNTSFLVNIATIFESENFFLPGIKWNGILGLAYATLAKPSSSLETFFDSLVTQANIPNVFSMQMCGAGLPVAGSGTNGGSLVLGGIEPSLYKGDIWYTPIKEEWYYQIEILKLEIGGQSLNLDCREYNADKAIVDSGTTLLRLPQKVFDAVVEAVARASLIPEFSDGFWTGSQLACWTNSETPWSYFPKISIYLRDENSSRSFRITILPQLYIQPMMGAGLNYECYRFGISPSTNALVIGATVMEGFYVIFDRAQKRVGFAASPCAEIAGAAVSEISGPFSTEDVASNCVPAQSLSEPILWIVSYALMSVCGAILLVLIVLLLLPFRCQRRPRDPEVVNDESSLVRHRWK
Method in brief: as §1

| Compound | IC50 [1] [µM] | IC50 (Recombinant Cat D) [µM] | IC50 (human recombinant BACE1) [µM] | IC50 (human recombinant BACE2) [µM] |
| --- | --- | --- | --- | --- |
| C[C@]1(c2cc(Nc3ncnc4cc(OCc5ncco5)cnc34)cnc2F)N=C(N)S[C@@]2([C@H](O)C(F)(F)F)C[C@H]21 [Example 667, (1R)-1-((1S,5S,6S)-3-amino-5-(2-fluoro-5-((7-(1,3-oxazol-2-ylmethoxy)pyrido[3,2-d]pyrimidin-4-yl)amino)-3-pyridinyl)-5-methyl-2-thia-4-azabicyclo[4.1.0]hept-3-en-1-yl)-2,2,2-trifluoroethanol] | 0.00362 | 1160 | 0.00262 | 0.0599 |
| C[C@]1(c2cc(Nc3ncnc4cc(OCc5ncco5)cnc34)cnc2F)N=C(N)S[C@@]2([C@@H](O)C(F)(F)F)C[C@H]21 [Example 668, (1S)-1-((1S,5S,6S)-3-amino-5-(2-fluoro-5-((7-(1,3-oxazol-2-ylmethoxy)pyrido[3,2-d]pyrimidin-4-yl)amino)-3-pyridinyl)-5-methyl-2-thia-4-azabicyclo[4.1.0]hept-3-en-1-yl)-2,2,2-trifluoroethanol] | 0.00697 | 1970 | 0.0033 | 0.233 |
| C[C@]1(c2cc(Nc3nccc4cc(OCc5ncco5)cnc34)cnc2F)N=C(N)S[C@]2(CO)[C@H]1C2(F)F [Example 669, ((1S,5S,6R)-3-amino-7,7-difluoro-5-(2-fluoro-5-((3-(1,3-oxazol-2-ylmethoxy)-1,7-naphthyridin-8-yl)amino)-3-pyridinyl)-5-methyl-2-thia-4-azabicyclo[4.1.0]hept-3-en-1-yl)methanol] | 0.00593 | 1140 | 0.00119 | 0.036 |
| C#CCOc1cnc2c(Nc3cnc(F)c([C@@]4(C)N=C(N)S[C@@]5(CO)C[C@H]54)c3)ncnc2c1 [Example 670, ((1S,5S,6S)-3-amino-5-(2-fluoro-5-((7-(2-propyn-1-yloxy)pyrido[3,2-d]pyrimidin-4-yl)amino)-3-pyridinyl)-5-methyl-2-thia-4-azabicyclo[4.1.0]hept-3-en-1-yl)methanol] | 0.000969 | 730 | 0.0024 | 0.17 |
| C#CCOc1cnc2c(Nc3ccc(F)c([C@@]4(C)N=C(N)S[C@@]5([C@H](O)C(F)(F)F)C[C@H]54)c3)nccc2n1 [Example 671, (1R)-1-((1S,5S,6S)-3-amino-5-(2-fluoro-5-((2-(2-propyn-1-yloxy)pyrido[3,4-b]pyrazin-5-yl)amino)phenyl)-5-methyl-2-thia-4-azabicyclo[4.1.0]hept-3-en-1-yl)-2,2,2,-trifluoroethanol] | 0.00177 | 1040 | 0.000943 | 0.0236 |
| C#CCOc1cnc2c(Nc3ccc(F)c([C@@]4(C)N=C(N)S[C@@]5([C@@H](O)C(F)(F)F)C[C@H]54)c3)nccc2n1 [Example 672, (1S)-1-((1S,5S,6S)-3-amino-5-(2-fluoro-5-((2-(2-propyn-1-yloxy)pyrido[3,4-b]pyrazin-5-yl)amino)phenyl)-5-methyl-2-thia-4-azabicyclo[4.1.0]hept-3-en-1-yl)-2,2,2-trifluoroethanol] | 0.007 | 638 | 0.00142 | 0.0685 |
| C#CCOc1cnc(C(=O)Nc2ccc(F)c([C@@]3(C)N=C(N)S[C@@]4([C@H](O)C(F)(F)F)C[C@H]43)c2)cn1 [Example 673, N-(3-((1S,5S,6S)-3-amino-5-methyl-1-((1R)-2,2,2-trifluoro-1-hydroxyethyl)-2-thia-4-azabicyclo[4.1.0]hept-3-en-5-yl)-4-fluorophenyl)-5-(2-propyn-1-yloxy)-2-pyrazinecarboxamide] | 0.000398 | 101 | 0.000389 | 0.00602 |
| C#CCOc1cnc(C(=O)Nc2ccc(F)c([C@@]3(C)N=C(N)S[C@@]4([C@@H](O)C(F)(F)F)C[C@H]43)c2)cn1 [Example 674, N-(3-((1S,5S,6S)-3-amino-5-methyl-1-((1S)-2,2,2-trifluoro-1-hydroxyethyl)-2-thia-4-azabicyclo[4.1.0]hept-3-en-5-yl)-4-fluorophenyl)-5-(2-propyn-1-yloxy)-2-pyrazinecarboxamide] | 0.000776 | 149 | 0.000368 | 0.0133 |
| COC[C@]12C[C@H]1[C@@](C)(c1cc(NC(=O)c3ncc(OCC(F)(F)F)cc3C)cc(F)c1F)N=C(N)S2 [Example 675, N-(3-((1S,5S,6S)-3-amino-1-(methoxymethyl)-5-methyl-2-thia-4-azabicyclo[4.1.0]hept-3-en-5-yl)-4,5-difluorophenyl)-3-methyl-5-(2,2,2-trifluoroethoxy)-2-pyridinecarboxamide] | 0.0519 | 1010 | 0.0124 | 0.703 |
| C#CCOc1cnc2c(Nc3cnc(F)c([C@@]4(C)N=C(N)S[C@@]5([C@H](OC)C(F)(F)F)C[C@H]54)c3)nccc2n1 [Example 676, N-(5-((1S,5S,6S)-3-amino-5-methyl-1-((1R)-2,2,2-trifluoro-1-methoxyethyl)-2-thia-4-azabicyclo[4.1.0]hept-3-en-5-yl)-6-fluoro-3-pyridinyl)-2-(2-propyn-1-yloxy)pyrido[3,4-b]pyrazin-5-amine] | 0.0033 | 337 | 0.00155 | 0.0157 |
| C#CCOc1cnc2c(Nc3cnc(F)c([C@@]4(C)N=C(N)S[C@@]5([C@@H](OC)C(F)(F)F)C[C@H]54)c3)nccc2n1 [Example 677, N-(5-((1S,5S,6S)-3-amino-5-methyl-1-((1S)-2,2,2-trifluoro-1-methoxyethyl)-2-thia-4-azabicyclo[4.1.0]hept-3-en-5-yl)-6-fluoro-3-pyridinyl)-2-(2-propyn-1-yloxy)pyrido[3,4-b]pyrazin-5-amine] | 0.00305 | 306 | 0.0016 | 0.00948 |
| COC[C@]12C[C@H]1[C@@](C)(c1cc(NC(=O)c3ncc(OCC(F)(F)F)cc3C)ccc1F)N=C(N)S2 [Example 681, N-(3-((1S,5S,6S)-3-amino-1-(methoxymethyl)-5-methyl-2-thia-4-azabicyclo[4.1.0]hept-3-en-5-yl)-4-fluorophenyl)-3-methyl-5-(2,2,2-trifluoroethoxy)-2-pyridinecarboxamide] | 0.0555 | 1450 | 0.0109 | 0.789 |
| C#CCOc1cnc(C(=O)Nc2ccc(F)c([C@@]3(C)N=C(N)S[C@@]4(COC)C[C@H]43)c2)c(C)c1 [Example 683, N-(3-((1S,5S,6S)-3-amino-1-(methoxymethyl)-5-methyl-2-thia-4-azabicyclo[4.1.0]hept-3-en-5-yl)-4-fluorophenyl)-3-methyl-5-(2-propyn-1-yloxy)-2-pyridinecarboxamide] | 0.008 | 2100 | 0.00391 | 0.0267 |
| C#CCOc1cnc(C(=O)Nc2cc(F)c(F)c([C@@]3(C)N=C(N)S[C@@]4(CF)C[C@H]43)c2)c(C)c1 [Example 684, N-(3-((1S,5S,6S)-3-amino-1-(fluoromethyl)-5-methyl-2-thia-4-azabicyclo[4.1.0]hept-3-en-5-yl)-4,5-difluorophenyl)-3-methyl-5-(2-propyn-1-yloxy)-2-pyridinecarboxamide] | 0.00684 | 1040 | 0.00146 | 0.0332 |
| C#CCOc1cnc(C(=O)Nc2cc(F)c(F)c([C@@]3(C)N=C(N)S[C@@]4(C(F)F)C[C@@H]34)c2)c(C)c1 [Example 685, N-(3-((1S,5S,6S)-3-amino-1-(difluoromethyl)-5-methyl-2-thia-4-azabicyclo[4.1.0]hept-3-en-5-yl)-4,5-difluorophenyl)-3-methyl-5-(2-propyn-1-yloxy)-2-pyridinecarboxamide] | 0.0197 | 463 | 0.00112 | 0.018 |
| C#CCOc1cnc(C(=O)Nc2ccc(F)c([C@@]3(C)N=C(N)S[C@@]4(C(F)F)C[C@@H]34)c2)c(C)c1 [Example 686, N-(3-((1S,5S,6S)-3-amino-1-(difluoromethyl)-5-methyl-2-thia-4-azabicyclo[4.1.0]hept-3-en-5-yl)-4-fluorophenyl)-3-methyl-5-(2-propyn-1-yloxy)-2-pyridinecarboxamide] | 0.00967 | 496 | 0.00167 | 0.0221 |
| COC[C@]12C[C@H]1[C@@](C)(c1cc(NC(=O)c3ncc(O[C@@H](C)c4ncco4)cc3C)cc(F)c1F)N=C(N)S2 [Example 687, N-(3-((1S,5S,6S)-3-amino-1-(methoxymethyl)-5-methyl-2-thia-4-azabicyclo[4.1.0]hept-3-en-5-yl)-4,5-difluorophenyl)-3-methyl-5-((1S)-1-(1,3-oxazol-2-yl)ethoxy)-2-pyridinecarboxamide] | 0.569 | > 400 | 0.117 | 2.52 |
| COC[C@]12C[C@H]1[C@@](C)(c1cc(NC(=O)c3ncc(O[C@H](C)c4ncco4)cc3C)cc(F)c1F)N=C(N)S2 [Example 688] | 3.89 | 1320 | 0.548 | 0.709 |
